Our source for the IC50 and ED50 values is patent US5480882A, “Benzoxazinone and benzothiazinone derivatives having cardiovascular activity” (Italfarmaco S.p.A., priority 1992, dated 1996).

Where a name gives a salt, the structure may show the parent alone.

In test [1] the test system is rabbit aorta strip contracted with noradrenaline. Put plainly: Vasodilative activity in vitro, inhibition of noradrenaline-induced contraction of rabbit aorta strip. Type of test: cell-based. To be noted: Oryctolagus cuniculus; 50% inhibition of noradrenaline contraction of rabbit aorta strip. As for the experimental part:
The vasodilative activity of the compounds of the present invention were determined by testing of a rabbit aorta strip contracted with noradrenaline. Using the method described by K. Murakami et al. Eur. J. Pharmacol., 141, 195, 1987., IC50 values (i.e. the micromolar (μM) concentrations of active substances causing a 50% inhibition of the contraction of the aorta strip), were determined.

For test [2], the system named is Arg-vasopressin induced coronary spasm, anaesthetized Sprague Dawley rats. Put plainly: In vivo antianginal activity, Arg-vasopressin-induced coronary spasm (T-wave increase) in anaesthetized rats. The settings on record: Rattus norvegicus, iv, 4 increasing doses; 50% inhibition of T-wave increase induced by i.v. Arg-vasopressin in anaesthetized rats. As for the experimental part: The in vivo antianginal activity was determined on anaesthetized Sprague Dawley rats of weight 350-400 g, in accordance with the method of M. Leitold et al., Arzeim. Forsch., 36, 1454 1986. The test was carried out by intravenously administering to the animals one I.U./Kg, equivalent to […] of Arg-vasopressin, thus inducing a reproducible coronary spasm that may be electrocardiographically monitored by an increase of the T-wave. The animals were treated intravenously with 4 increasing doses of the compounds of the present invention to measure their ED50 (i.e., the dose giving 50% inhibition of the T-wave increase).

In turn, `N#Cc1ccc2c(c1)C(=O)N(CCO[N+](=O)[O-])CO2` [Example 4, 6-Ciano-2,3-dihydro-3-(2'-nitrooxyethyl)-4H-1.3-benzoxazin-4-one] showed an IC50 in test [1] of 71 nM. The molecule also yielded an ED50 in test [2] of 0.0115 mg/kg.
The matching figures for `CC(=O)Nc1ccc2c(c1)C(=O)N(CCO[N+](=O)[O-])CO2` [Example 2, 6-Acetamido-2,3-dihydro-3-(2'-nitrooxyethyl)-4H-1,3-benzoxazin-4-one]: 270 nM and 0.021 mg/kg.
For the molecule `CN(C)C=Nc1ccc2c(c1)C(=O)N(CCO[N+](=O)[O-])CO2` [Example 3, 2,3-Dihydro-6-(N',N',-dimethyl-N-formimido)-3-(2'-nitro-oxyethyl)-4H-1,3-benzoxazin-4-one-HCl], 640 nM corresponded to half-maximal inhibition in test [1] (IC50). Also, in test [2], the ED50 turned out to be 0.0097 mg/kg.
For `O=C1c2cc([N+](=O)[O-])ccc2OCN1CCO[N+](=O)[O-]` [Example 1, 2,3-Dihydro-3-(2'-nitrooxyethyl)-6-nitro,4H-1,3-benzoxazin-4-one], the IC50 in test [1] worked out at 21 nM. This molecule registered an ED50 in test [2] of 0.0637 mg/kg.
`O=C1c2ccc(O)cc2OCN1CCO[N+](=O)[O-]` [Example 6, 2,3-Dihydro-7-hydroxy-3-(2'-nitrooxyethyl)-4H-1,3-benzoxazin-4-one] registered a concentration for half-maximal inhibition (IC50) in test [1] of 57 nM.
Consider `O=C1c2cc(O)ccc2OCN1CCO[N+](=O)[O-]` [Example 5, 2,3-Dihydro-6-hydroxy-3-(2'-nitrooxyethyl)-4H-1,3-benzoxazin-4-one], for which the midpoint of inhibition in test [1], the IC50, lay at 96 nM.

One may read the IC50 as the concentration at which inhibition is half-maximal. Usually ED50 stands for the dose at which the effect has come halfway, by size or by number of responders.
